Results taken from patent US20240360151A1 (SANOFI, priority 2023, published 2024).
Where a name gives a salt, the structure may show the parent alone.

What follows are compounds tested on NF-kB pathway (TNF-α secretion by THP-1 cells) (assay: TNF-α secretion assay in LPS-stimulated THP-1 cells, Lumit immunoassay). Details: Homo sapiens, THP-1, 3 h, monocytic THP-1 cells, LPS 10 ng/mL, relative IC50, 10 concentrations, geometric mean.
Type: cell-based, human
Description: Monocytic THP-1 cells were maintained in RPMI 1640 media (Gibco 21875)+10% FBS, (Gibco 10500)+1% penicillin/streptomycin (Gibco 15140-122). Cells were then plated at 40,000 cells per well in 384-well cell culture plates (Corning 3542) and maintained with RPMI1640 (Gibco 11835)+5% FBS, (Gibco 10500). Experimental compounds were prepared and added as described above. TNF-α secretion was triggered by the addition of 10 ng/mL LPS (invivoGen, tlrl-3pelps) and cells were incubated for 3 hours. TNF-α levels were monitored directly in the cells plate using an Lumit assay (Lumit TNFa-Human Immunoassay—Promega W6051) according to manufacturers' instructions.
Data were expressed as percentage of inhibition (I %) as compared to a maximum signal control containing no small molecule (I %=0%) according to the formula: 1%=(1−((Sample−Min))/((Max−Min)))×100, where: • Sample: Signal obtained in the presence of each compound tested, • Max: Maximum signal in the absence of compound added, • Min: Minimum or background signal obtained in the absence of activation signal.
Relative IC50 (IC50 rel) were obtained from a dose response curve with 10 concentrations. Final IC50 rels are expressed as the geometric mean.
Relative IC50 values were estimated with Biost@t-SPEED v2.4 internal software based on SAS system using the 4-parameter logistic model according to Ratkovsky and Reedy (D. A. Ratkovsky, T. J. Reedy, Choosing near-linear parameters in the four parameters logistic model radioligands and related assays. Biometrics, 42 (1986), 575-582): Y=A+C/((1+exp(−B*(log(X)−M)))), where: • A: Lower asymptote (BOTTOM), • A+C: Upper asymptote (TOP), • M: the logarithm of the concentration estimated at the inflexion point (the logarithm of the relative IC50), • B: Slope at the inflexion point of the curve.

Row | Compound | IC50 [nM]
1 | Cc1cc(C(F)(F)F)cc(O)c1-c1ccc(N2C[C@@H](N)CC2=O)nn1 [Example 250, (4S)-4-amino-1-[6-[2-hydroxy-6-methyl-4-(trifluoromethyl)phenyl]pyridazin-3-yl]pyrrolidin-2-one] | > 10000
2 | CCN1CC[C@H]2CCN(c3ccc(-c4c(C)cc(C(F)(F)F)cc4O)nn3)[C@H]2C1 (stereo in doubt) [Example 406, 2-[6-[(3aS,7aR)-6-ethyl-3,3a,4,5,7,7a-hexahydro-2H-pyrrolo[2,3-c]pyridin-1-yl]pyridazin-3-yl]-3-methyl-5-(trifluoromethyl)phenol] | > 10000

Further lines, results first:

Row | IC50 [nM] | Compound
3 | > 10000 | Cc1cc(C)c(-c2ccc(N3CC[C@@H](O)C3)nn2)c(O)c1 [Example 70, (3R)-1-[6-(2-hydroxy-4,6-dimethyl-phenyl)pyridazin-3-yl]pyrrolidin-3-ol]
4 | > 10000 | Cc1cc(C(F)(F)F)cc(O)c1-c1ccc(N2CCO[C@H]3CCNC[C@H]32)nn1 (racemic) [Example 197, 2-[6-[rac-(4aR,8aS)-2,3,4a,5,6,7,8,8a-octahydropyrido[4,3-b][1,4]oxazin-4-yl]pyridazin-3-yl]-3-methyl-5-(trifluoromethyl)phenol]
5 | > 10000 | Cc1cc(C)c(-c2ccc(N3CCO[C@@H](CC(N)=O)C3)nn2)c(O)c1 (single isomer, unassigned) [Example 147]
6 | > 10000 | Cc1cc(C)c(-c2ccc(N3CCO[C@H]4CN(C5CCC5)CC[C@H]43)nn2)c(O)c1 (racemic) [Example 4, 3,5-dimethyl-2-[6-[rac-(4aS,8aR)-6-cyclobutyl-3,4a,5,7,8,8a-hexahydro-2H-pyrido[3,4-b][1,4]oxazin-1-yl]pyridazin-3-yl]phenol]

The compounds below were run against T1, NLRP3 inflammasome (Homo sapiens, UniProt Q96P20) (assay: IL-1β secretion assay (NLRP3 IC50) in LPS-primed, nigericin-activated THP-1 cells, HTRF). Details: monocytic THP-1 cells; LPS 10 ng/mL 3 h priming, then compound + nigericin 10 μM 2 h; relative IC50, 10 concentrations, geometric mean.
T1 construct: endogenous in cells; host or cells: THP-1 monocytic cells
Type: cell-based
Method in brief: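 IL-1β in supernatant read by HTRF after 2 h co-incubation of compound (0.1% DMSO, 10 concentrations, 1:3 series) with nigericin at 10 μM final, following 3 h LPS (10 ng/mL) priming of THP-1 monocytes at 37° C. Inhibition normalised to unactivated and no-compound controls; geometric-mean relative IC50 from 4-parameter logistic model.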

T1 sequence (Q96P20 whole entry): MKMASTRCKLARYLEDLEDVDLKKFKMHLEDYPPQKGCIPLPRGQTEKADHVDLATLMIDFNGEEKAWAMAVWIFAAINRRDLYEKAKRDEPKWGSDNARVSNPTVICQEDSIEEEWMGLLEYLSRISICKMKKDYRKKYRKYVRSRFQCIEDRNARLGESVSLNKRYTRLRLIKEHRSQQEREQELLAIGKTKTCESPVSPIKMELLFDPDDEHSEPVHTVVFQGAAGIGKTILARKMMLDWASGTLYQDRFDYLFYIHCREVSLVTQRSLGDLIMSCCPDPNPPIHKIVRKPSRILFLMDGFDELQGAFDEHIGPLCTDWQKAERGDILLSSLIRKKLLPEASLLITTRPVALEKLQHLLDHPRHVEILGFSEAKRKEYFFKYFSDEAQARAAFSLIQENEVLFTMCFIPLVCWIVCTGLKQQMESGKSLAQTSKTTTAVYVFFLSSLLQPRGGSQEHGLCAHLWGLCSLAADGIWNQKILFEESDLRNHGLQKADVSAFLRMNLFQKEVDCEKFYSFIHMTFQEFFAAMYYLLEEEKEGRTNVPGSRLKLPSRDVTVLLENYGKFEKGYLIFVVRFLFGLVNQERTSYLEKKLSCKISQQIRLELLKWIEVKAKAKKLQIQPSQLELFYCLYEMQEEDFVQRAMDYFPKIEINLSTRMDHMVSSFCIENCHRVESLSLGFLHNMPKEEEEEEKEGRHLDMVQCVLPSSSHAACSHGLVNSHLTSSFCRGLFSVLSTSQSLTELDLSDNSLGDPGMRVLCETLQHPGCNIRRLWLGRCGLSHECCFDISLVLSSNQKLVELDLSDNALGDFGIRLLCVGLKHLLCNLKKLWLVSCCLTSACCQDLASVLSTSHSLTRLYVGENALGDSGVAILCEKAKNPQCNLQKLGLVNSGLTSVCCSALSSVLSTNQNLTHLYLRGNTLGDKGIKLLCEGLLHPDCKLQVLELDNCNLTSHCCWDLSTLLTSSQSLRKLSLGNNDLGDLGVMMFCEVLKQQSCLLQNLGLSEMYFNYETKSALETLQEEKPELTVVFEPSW

Row | Compound | IC50 [nM]
7 | Cc1cc(C(F)(F)F)cc(O)c1-c1ccc(N2C[C@@H](N)CC2=O)nn1 [Example 250, (4S)-4-amino-1-[6-[2-hydroxy-6-methyl-4-(trifluoromethyl)phenyl]pyridazin-3-yl]pyrrolidin-2-one] | 249
8 | CCN1CC[C@H]2CCN(c3ccc(-c4c(C)cc(C(F)(F)F)cc4O)nn3)[C@H]2C1 (stereo in doubt) [Example 406, 2-[6-[(3aS,7aR)-6-ethyl-3,3a,4,5,7,7a-hexahydro-2H-pyrrolo[2,3-c]pyridin-1-yl]pyridazin-3-yl]-3-methyl-5-(trifluoromethyl)phenol] | 78
9 | Cc1cc(C)c(-c2ccc(N3C[C@@H]4NCCO[C@H]4C3)nn2)c(O)c1 [Example 185, 2-[6-[(4aS,7aS)-3,4,4a,5,7,7a-hexahydro-2H-pyrrolo[3,4-b][1,4]oxazin-6-yl]pyridazin-3-yl]-3,5-dimethylphenol] | 3220
10 | CN1CC[C@@H]2CCN(c3ccc(-c4c(O)cccc4C(F)(F)F)nn3)[C@@H]2C1 (single isomer, unassigned) [Example 426] | 952
11 | CCc1cc(C(F)(F)F)cc(O)c1-c1ccc(N2CC[C@@H]3CCN(C)C[C@@H]32)nn1 (single isomer, unassigned) [Example 492] | 3
12 | Cc1ccc(-c2nnc(N3CC[C@@H]4CCN(C(C)C)C[C@@H]43)cc2C)c(O)c1 (racemic) [Example 528, 5-methyl-2-[4-methyl-6-[rac-(3aS,7aR)-6-isopropyl-3,3a,4,5,7,7a-hexahydro-2H-pyrrolo[2,3-c]pyridin-1-yl]pyridazin-3-yl]phenol] | 4.9
13 | Cc1cc(C(F)(F)F)cc(O)c1-c1ccc(N2CC[C@@H]3NCC[C@@H]32)nn1 (racemic) [Example 346, 3-methyl-2-[6-[rac-(3aS,6aS)-2,3,3a,5,6,6a-hexahydro-1H-pyrrolo[3,2-b]pyrrol-4-yl]pyridazin-3-yl]-5-(trifluoromethyl)phenol;hydrochloride] | 212
14 | Oc1cc(Cl)cc(Cl)c1-c1ccc(N2CCC(F)(F)CC2)nn1 [Example 49, 3,5-dichloro-2-[6-(4,4-difluoro-1-piperidyl)pyridazin-3-yl]phenol] | 672
15 | CC(=O)N1CC[C@H]2CCN(c3ccc(-c4c(C)cc(C(F)(F)F)cc4O)nn3)[C@H]2C1 [Example 395, 1-[(3aR,7aR)-1-[6-[2-hydroxy-6-methyl-4-(trifluoromethyl)phenyl]pyridazin-3-yl]-3,3a,4,5,7,7a-hexahydro-2H-pyrrolo[2,3-c]pyridin-6-yl]ethanone] | 234
16 | CCN1CC[C@H]2CCN(c3cc(C)c(-c4ccc(C)cc4O)nn3)[C@H]2C1 (racemic) [Example 460, 2-[6-[rac-(3aS,7aR)-6-ethyl-3,3a,4,5,7,7a-hexahydro-2H-pyrrolo[2,3-c]pyridin-1-yl]-4-methyl-pyridazin-3-yl]-5-methyl-phenol] | < 0.3
17 | Cc1cc(N2CCO[C@@H]3CCN(C)C[C@@H]32)nnc1-c1ccc2c(c1O)CCC2 [Example 471, 5-[6-[(4aS,8aR)-6-methyl-3,4a,5,7,8,8a-hexahydro-2H-pyrido[4,3-b][1,4]oxazin-4-yl]-4-methyl-pyridazin-3-yl]indan-4-ol] | 1
18 | Cc1ccc(-c2nnc(N3CCO[C@H]4CCN(C)C[C@H]43)cc2C(F)F)c(O)c1 [Example 306, 2-[6-[(4aR,8aS)-6-methyl-3,4a,5,7,8,8a-hexahydro-2H-pyrido[4,3-b][1,4]oxazin-4-yl]-4-(difluoromethyl)pyridazin-3-yl]-5-methyl-phenol] | 1510
19 | CCN1CC[C@H]2CCN(c3cc(C)c(-c4ccc(C)cc4O)nn3)[C@H]2C1 (single isomer, unassigned) [Example 475] | 93

Now from value to compound:

Row | IC50 [nM] | Compound
20 | 467 | Cc1cc(C)c(-c2ccc(N3CC[C@@H](O)C3)nn2)c(O)c1 [Example 70, (3R)-1-[6-(2-hydroxy-4,6-dimethyl-phenyl)pyridazin-3-yl]pyrrolidin-3-ol]
21 | 9 | Cc1cc(C(F)(F)F)cc(O)c1-c1ccc(N2CCO[C@H]3CCNC[C@H]32)nn1 (racemic) [Example 197, 2-[6-[rac-(4aR,8aS)-2,3,4a,5,6,7,8,8a-octahydropyrido[4,3-b][1,4]oxazin-4-yl]pyridazin-3-yl]-3-methyl-5-(trifluoromethyl)phenol]
22 | 575 | Cc1cc(C)c(-c2ccc(N3CCO[C@@H](CC(N)=O)C3)nn2)c(O)c1 (single isomer, unassigned) [Example 147]
23 | 251 | Cc1cc(C)c(-c2ccc(N3CCO[C@H]4CN(C5CCC5)CC[C@H]43)nn2)c(O)c1 (racemic) [Example 4, 3,5-dimethyl-2-[6-[rac-(4aS,8aR)-6-cyclobutyl-3,4a,5,7,8,8a-hexahydro-2H-pyrido[3,4-b][1,4]oxazin-1-yl]pyridazin-3-yl]phenol]
24 | 385 | Cc1cc(C)c(-c2ccc(N3CCCCC(CO)C3)nn2)c(O)c1 (stereo not shown) [Example 107, 2-[6-[3-(hydroxymethyl)azepan-1-yl]pyridazin-3-yl]-3,5-dimethyl-phenol]
25 | 249 | Cc1cc(Cl)cc(O)c1-c1ccc(N2CCO[C@@H]3CCNC[C@@H]32)nn1 [Example 309, 2-[6-[(4aS,8aR)-2,3,4a,5,6,7,8,8a-octahydropyrido[4,3-b][1,4]oxazin-4-yl]pyridazin-3-yl]-5-chloro-3-methyl-phenol]
26 | 21 | Cc1cc(Cl)cc(O)c1-c1ccc(N2CCO[C@@H]3CCN(CCF)C[C@@H]32)nn1 [Example 522, 2-[6-[(4aS,8aR)-6-(2-fluoroethyl)-3,4a,5,7,8,8a-hexahydro-2H-pyrido[4,3-b][1,4]oxazin-4-yl]pyridazin-3-yl]-5-chloro-3-methyl-phenol]
27 | 7 | Cc1cc(C)c(-c2ccc(N3CCC[C@@H]4CCN(C)C[C@@H]43)nn2)c(O)c1 [Example 519, 2-[6-[(4aR,8aR)-7-methyl-2,3,4,4a,5,6,8,8a-octahydro-1,7-naphthyridin-1-yl]pyridazin-3-yl]-3,5-dimethyl-phenol]
28 | 3000 | CCN1CCOC2(COCCN(c3ccc(-c4c(C)cc(C)cc4O)nn3)C2)C1 (stereo not shown) [Example 317, 2-[6-(4-ethyl-1,11-dioxa-4,8-diazaspiro[5.6]dodecan-8-yl)pyridazin-3-yl]-3,5-dimethyl-phenol]
29 | 1170 | Cc1cc(C)c(-c2ccc(N3CCO[C@@H](CC(=O)N(C)C)C3)nn2)c(O)c1 (single isomer, unassigned) [Example 151]
30 | 188 | Cc1cc(C(F)(F)F)cc(O)c1-c1ccc(N2CCO[C@H](CO)C2=O)nn1 (stereo in doubt) [Example 368, 2-(hydroxymethyl)-4-[6-[2-hydroxy-6-methyl-4-(trifluoromethyl)phenyl]pyridazin-3-yl]morpholin-3-one]
31 | 411 | Cc1cc(C(F)(F)F)cc(O)c1-c1ccc(N2CCO[C@@H]3CCOC[C@@H]32)nn1 (racemic) [Example 438, 3-methyl-2-[6-[rac-(4aS,8aR)-3,4a,5,7,8,8a-hexahydro-2H-pyrano[4,3-b][1,4]oxazin-4-yl]pyridazin-3-yl]-5-(trifluoromethyl)phenol]
32 | 1900 | Cc1cc(C)c(-c2ccc(N3CC[C@]4(CN(C)CCO4)C3)nn2)c(O)c1 [Example 445, 3,5-dimethyl-2-[6-[(5S)-9-methyl-6-oxa-2,9-diazaspiro[4.5]decan-2-yl]pyridazin-3-yl]phenol]
33 | 614 | Cc1cc(C)c(-c2ccc(N3CCO[C@H](CN)C3)nn2)c(O)c1 [Example 89]
34 | < 0.3 | CCc1cc(C)cc(O)c1-c1ccc(N2CC[C@@H]3CCN(C)C[C@@H]32)nn1 (single isomer, unassigned) [Example 477]
35 | 298 | Cc1cc(C)c(-c2ccc(N3CCOC([C@H](C)O)C3)nn2)c(O)c1 (single isomer, unassigned) [Example 98]
36 | 922 | Cc1cc(C)c(-c2ccc(N3CCC[C@@H](N(C)C)C3)nn2)c(O)c1 [Example 148, 2-[6-[(3R)-3-(dimethylamino)-1-piperidyl]pyridazin-3-yl]-3,5-dimethyl-phenol]
37 | 1150 | COC[C@@H]1CCN(c2ccc(-c3c(C)cc(C)cc3O)nn2)C1 [Example 88, 2-[6-[(3R)-3-(methoxymethyl)pyrrolidin-1-yl]pyridazin-3-yl]-3,5-dimethyl-phenol]
